Data from publication PMC10539329, “NLRP6 potentiates PI3K/AKT signalling by promoting autophagic degradation of p85α to drive tumorigenesis” (Nature Communications, 2023).

How the values were obtained:
purified NLRP6 = test: ELISA, binding of HRP-conjugated peptide to purified NLRP6; settings: HRP-conjugated peptide on NLRP6, 1 h, absorbance 450 nm
Method: DNA encoding full-length NLRP6 was codon optimized and chemically synthesized by Genewiz (Soochow, China). The DNA sequence was subcloned into NdeI-XhoI sites of a pDB-His-MBP vector (kindly given by Pro. Chenggui Han, China Agricultural University, Beijing, China). Recombinant NLRP6 protein was expressed and purified following previous reports, with slight modifications. Briefly, the protein was expressed in E. coli (DE3) at 16 °C with 0.5 mM IPTG induction overnight. Then, the protein was purified by Ni affinity and gel filtration chromatography. The p85α WT and p85α mutant sequences were chemically synthesized and subcloned into BamHI-XhoI sites of a pGEX-6P-1 plasmid by GenScript (Nanjing, China). The E. coli (DE3) transformed with the plasmids were grown in LB medium at 37 °C. The culture medium was supplemented with 0.5 mM IPTG followed by incubation at 16 °C for 16–18 h. The proteins were purified by glutathione-affinity chromatography (Smart-Life Sciences, Changzhou, China) followed by gel filtration chromatography (Cytiva, MA, USA) using PBS. The protein extinction coefficient was calculated by ProtParam, and the protein concentration was determined by the ultraviolet spectrophotometry method.
(§1) The 96-well plate was coated with bovine serum albumin (BSA) or purified NLRP6. HRP-conjugated PepC or HRP-conjugated Pep9 was incubated with BSA or NLRP6 for 1 h, and the unbound peptide was washed away. The HRP substrate was added, and the absorbance was detected at 450 nm. For the competitive ELISA, the 96-well plate was coated with purified p85α. The binding of NLRP6 to p85α competed with 10 μM PepC or 5 μM, 10 μM, 20 μM Pep9 for 1 h.

U251 cells = test: Cell proliferation / viability assay, U251 (PTEN deficient); type: cell-based, Human; settings: Supplementary Figure 8i
Method: (§2) Cells were seeded into 12-well plates at a density of 1 × 10^4 cells per well. Manual cell counting was carried out at the indicated times using trypan blue and a haemocytometer.
(§3) To determine the antitumour effect of the peptide in vitro, the peptide was incubated with cells for 24 h when the cells were grown to approximately 80% confluence. Cell viability was measured at the indicated time points. The cell lysates were collected for immunoprecipitation as described above. To determine the antitumour effect of the peptide in vivo, the peptide was stereotactically injected using identical coordinates of tumour implantation in 3 μl of PBS. Briefly, 3 weeks after intracranial tumour cell implantation, mice with similar tumour sizes and similar weights were selected and randomly arranged into five groups (n = 6): PBS, PepC (0.25 mg/kg TAT-PepC per injection), Pep9 low dose (Pep9 L, 0.05 mg/kg TAT-Pep9 per injection), Pep9 medium dose (Pep9 M, 0.1 mg/kg TAT-Pep9 per injection), and Pep9 high dose (Pep9 H, 0.25 mg/kg TAT-Pep9 per injection). Each mouse received intratumoural injection every 10 days (at Day 21, Day 31, Day 41, and Day 51), and tumour growth was monitored at Day 21, Day 41, and Day 56. The experiment was terminated at Day 80, and all the mice (if they were alive) were sacrificed as previously described.

LN18 cells = test: Cell proliferation / viability assay, LN18; type: cell-based, Human; settings: Supplementary Figure 8c
Method: as §2, §3

LN229 cells = test: Cell proliferation / viability assay, LN229; type: cell-based, Human; settings: TAT-peptide
Method: as §2, §3

[1] = system: bovine serum albumin (BSA); test: ELISA, binding of HRP-conjugated peptide to BSA (control); settings: HRP-conjugated peptide on BSA, 1 h, absorbance 450 nm
Method: as §1

[2] = system: nude mice with intracranially implanted tumour cells; test: Survival of nude mice with intracranial tumour after intratumoural peptide; type: in vivo, BALB/c nude mice; settings: 0.25 mg/kg per injection (PepC, Pep9 H)
Method: BALB/c nude mice were maintained and bred in a specific-pathogen free (SPF) environment, adhering to standard conditions of temperature (20–26 °C) and humidity (40–70%). They were subjected to a strict 12-h light cycle, with lights on at 08:00 a.m. and off at 08:00 p.m. No limitations were imposed on the sex of the experimental animals involved in this study. Cells expressing firefly luciferase mixed with Matrigel (Corning, NY, USA) were intracranially injected into 5- to 6-week-old female athymic nude mice. The intracranial injection point was at the cerebral cortex, 1 mm prior to coronal suture, 1 mm on the right side of the centreline, and 3 mm below the dura mater. Appropriate medications were provided to reduce pain. To monitor intracranial tumour growth, the animals were intraperitoneally injected with D-luciferin (Yeasen, #40902ES01) and anaesthetized with isoflurane. The images were captured using an In Vivo MS FX pro Imaging System (Bruker, MA, USA) or IVIS Lumina imaging station (Perkin Elmer, MA, USA). The results were reported as the total flux (photons/second). The mice were sacrificed at the indicated time points. The brains were removed, fixed in 4% paraformaldehyde, and embedded in paraffin.
as §3

## SAEGYQYRALYD [Pep1, peptide found on the p85α SH3 domain; selected as the control named PepC]
Purified NLRP6; replicate 1
  ELISA value: 0.12
Purified NLRP6; replicate 2
  ELISA value: 0.10
Purified NLRP6; replicate 3
  ELISA value: 0.06
U251 cells; 5 μM, replicate 1
  Relative cell viability: 1.01
U251 cells; 5 μM, replicate 2
  Relative cell viability: 1.04
U251 cells; 5 μM, replicate 3
  Relative cell viability: 0.94
U251 cells; 10 μM, replicate 1
  Relative cell viability: 0.88
U251 cells; 10 μM, replicate 2
  Relative cell viability: 0.87
U251 cells; 10 μM, replicate 3
  Relative cell viability: 0.79
U251 cells; 20 μM, replicate 1
  Relative cell viability: 0.99
U251 cells; 20 μM, replicate 2
  Relative cell viability: 1.04
U251 cells; 20 μM, replicate 3
  Relative cell viability: 0.91
U251 cells; 30 μM, replicate 1
  Relative cell viability: 1.05
U251 cells; 30 μM, replicate 2
  Relative cell viability: 0.89
U251 cells; 30 μM, replicate 3
  Relative cell viability: 0.98
LN18 cells; 5 μM, replicate 1
  Relative cell viability: 0.95
LN18 cells; 5 μM, replicate 2
  Relative cell viability: 0.92
LN18 cells; 5 μM, replicate 3
  Relative cell viability: 0.93
LN18 cells; 10 μM, replicate 1
  Relative cell viability: 0.92
LN18 cells; 10 μM, replicate 2
  Relative cell viability: 0.95
LN18 cells; 10 μM, replicate 3
  Relative cell viability: 0.90
LN18 cells; 20 μM, replicate 1
  Relative cell viability: 0.95
LN18 cells; 20 μM, replicate 2
  Relative cell viability: 0.92
LN18 cells; 20 μM, replicate 3
  Relative cell viability: 0.90
LN18 cells; 30 μM, replicate 1
  Relative cell viability: 0.92
LN18 cells; 30 μM, replicate 2
  Relative cell viability: 0.88
LN18 cells; 30 μM, replicate 3
  Relative cell viability: 0.94
LN229 cells; concentration 5 (unit not given), replicate 1
  Relative cell viability: 0.87
LN229 cells; concentration 5 (unit not given), replicate 2
  Relative cell viability: 0.87
LN229 cells; concentration 5 (unit not given), replicate 3
  Relative cell viability: 0.99
LN229 cells; concentration 10 (unit not given), replicate 1
  Relative cell viability: 1.05
LN229 cells; concentration 10 (unit not given), replicate 2
  Relative cell viability: 0.89
LN229 cells; concentration 10 (unit not given), replicate 3
  Relative cell viability: 0.97
LN229 cells; concentration 20 (unit not given), replicate 1
  Relative cell viability: 0.94
LN229 cells; concentration 20 (unit not given), replicate 2
  Relative cell viability: 0.96
LN229 cells; concentration 20 (unit not given), replicate 3
  Relative cell viability: 1.01
LN229 cells; concentration 30 (unit not given), replicate 1
  Relative cell viability: 0.95
LN229 cells; concentration 30 (unit not given), replicate 2
  Relative cell viability: 0.96
LN229 cells; concentration 30 (unit not given), replicate 3
  Relative cell viability: 1.02
[1]; replicate 1
  ELISA value: 0.10
[1]; replicate 2
  ELISA value: 0.15
[1]; replicate 3
  ELISA value: 0.12
[2]; terminated Day 80, mouse 1
  nude mice survival: 60 days
[2]; terminated Day 80, mouse 2
  nude mice survival: 61 days
[2]; terminated Day 80, mouse 3, >= is status 0 (live)
  nude mice survival: 59 days
[2]; terminated Day 80, mouse 4, >= is status 0 (live)
  nude mice survival: 58 days
[2]; terminated Day 80, mouse 5, >= is status 0 (live)
  nude mice survival: 58 days
[2]; terminated Day 80, mouse 6, >= is status 0 (live)
  nude mice survival: 62 days
